From patent US10765114B2, “4-amino-6-(pyridyl and 2-substitutedphenyl)-picolinates and 6-amino-2-(pyridyl and 2-substitutedphenyl)-pyrimidine-4-carboxylates and their use as herbicides” (Dow AgroSciences LLC, priority 2013, dated 2020)

tested on: Key Grass and Sedge Weeds as well as Grass Crops; assay: Post-Emergent Test II (Table 6); format: in vivo; conditions: post-emergence, 336 h, CYPSS, 70 g ai/ha, 14 days after application, read-out: Visual Growth Reduction (%) 14 Days After Application CYPSS
Summary of the method: (§1)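 Visual injury ratings (0 = no injury, 100 = complete kill) taken 14 days after treatment, relative to untreated controls. Compounds, in an acetone/DMSO aqueous carrier with crop oil and surfactant, were applied by track sprayer at 187 L/ha, in a twofold dilution series from the top rate, to plants at the first to second true-leaf stage.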

Row | SMILES | pest or weed control at 70 g/ha [%]
1 | COC(=O)c1nc(-c2ccc(Cl)c(F)c2CO)cc(N)c1Cl [Compound 29, Methyl 4-amino-3-chloro-6-(4-chloro-3-fluoro-2-(hydroxymethyl)phenyl)picolinate] | 0 to 29

same assay, conditions: post-emergence, 336 h, CYPSS, 140 g ai/ha, 14 days after application, read-out: Visual Growth Reduction (%) 14 Days After Application CYPSS

Row | SMILES | pest or weed control at 140 g/ha [%]
2 | COC(=O)c1nc(-c2ccc(Cl)c(F)c2CO)cc(N)c1Cl [Compound 29, Methyl 4-amino-3-chloro-6-(4-chloro-3-fluoro-2-(hydroxymethyl)phenyl)picolinate] | 0 to 29

same assay, conditions: post-emergence, 336 h, DIGSA: crabgrass (Digitaria sanguinalis), 70 g ai/ha, 14 days after application, read-out: Visual Growth Reduction (%) 14 Days After Application DIGSA

Row | SMILES | pest or weed control at 70 g/ha [%]
3 | COC(=O)c1nc(-c2ccc(Cl)c(F)c2CO)cc(N)c1Cl [Compound 29, Methyl 4-amino-3-chloro-6-(4-chloro-3-fluoro-2-(hydroxymethyl)phenyl)picolinate] | 0 to 29

same assay, conditions: post-emergence, 336 h, DIGSA: crabgrass (Digitaria sanguinalis), 140 g ai/ha, 14 days after application, read-out: Visual Growth Reduction (%) 14 Days After Application DIGSA

Row | SMILES | pest or weed control at 140 g/ha [%]
4 | COC(=O)c1nc(-c2ccc(Cl)c(F)c2CO)cc(N)c1Cl [Compound 29, Methyl 4-amino-3-chloro-6-(4-chloro-3-fluoro-2-(hydroxymethyl)phenyl)picolinate] | 0 to 29

same assay, conditions: post-emergence, 336 h, ECHSS, 70 g ai/ha, 14 days after application, read-out: Visual Growth Reduction (%) 14 Days After Application ECHSS

Row | SMILES | pest or weed control at 70 g/ha [%]
5 | COC(=O)c1nc(-c2ccc(Cl)c(F)c2CO)cc(N)c1Cl [Compound 29, Methyl 4-amino-3-chloro-6-(4-chloro-3-fluoro-2-(hydroxymethyl)phenyl)picolinate] | 0 to 29

same assay, conditions: post-emergence, 336 h, ECHSS, 140 g ai/ha, 14 days after application, read-out: Visual Growth Reduction (%) 14 Days After Application ECHSS

Row | SMILES | pest or weed control at 140 g/ha [%]
6 | COC(=O)c1nc(-c2ccc(Cl)c(F)c2CO)cc(N)c1Cl [Compound 29, Methyl 4-amino-3-chloro-6-(4-chloro-3-fluoro-2-(hydroxymethyl)phenyl)picolinate] | 0 to 29

same assay, conditions: post-emergence, 336 h, ORYSS (crop), 70 g ai/ha, 14 days after application, read-out: Visual Growth Reduction (%) 14 Days After Application ORYSS

Row | SMILES | pest or weed control at 70 g/ha [%]
7 | COC(=O)c1nc(-c2ccc(Cl)c(F)c2CO)cc(N)c1Cl [Compound 29, Methyl 4-amino-3-chloro-6-(4-chloro-3-fluoro-2-(hydroxymethyl)phenyl)picolinate] | 0 to 29

same assay, conditions: post-emergence, 336 h, ORYSS (crop), 140 g ai/ha, 14 days after application, read-out: Visual Growth Reduction (%) 14 Days After Application ORYSS

Row | SMILES | pest or weed control at 140 g/ha [%]
8 | COC(=O)c1nc(-c2ccc(Cl)c(F)c2CO)cc(N)c1Cl [Compound 29, Methyl 4-amino-3-chloro-6-(4-chloro-3-fluoro-2-(hydroxymethyl)phenyl)picolinate] | 0 to 29

same assay, conditions: post-emergence, 336 h, SETFA: giant foxtail (Setaria faberi), 70 g ai/ha, 14 days after application, read-out: Visual Growth Reduction (%) 14 Days After Application SETFA

Row | SMILES | pest or weed control at 70 g/ha [%]
9 | COC(=O)c1nc(-c2ccc(Cl)c(F)c2CO)cc(N)c1Cl [Compound 29, Methyl 4-amino-3-chloro-6-(4-chloro-3-fluoro-2-(hydroxymethyl)phenyl)picolinate] | 0 to 29

same assay, conditions: post-emergence, 336 h, SETFA: giant foxtail (Setaria faberi), 140 g ai/ha, 14 days after application, read-out: Visual Growth Reduction (%) 14 Days After Application SETFA

Row | SMILES | pest or weed control at 140 g/ha [%]
10 | COC(=O)c1nc(-c2ccc(Cl)c(F)c2CO)cc(N)c1Cl [Compound 29, Methyl 4-amino-3-chloro-6-(4-chloro-3-fluoro-2-(hydroxymethyl)phenyl)picolinate] | 0 to 29

same assay, conditions: post-emergence, 336 h, SORVU: grain sorghum (Sorghum vulgare), 70 g ai/ha, 14 days after application, read-out: Visual Growth Reduction (%) 14 Days After Application SORVU

Row | SMILES | pest or weed control at 70 g/ha [%]
11 | COC(=O)c1nc(-c2ccc(Cl)c(F)c2CO)cc(N)c1Cl [Compound 29, Methyl 4-amino-3-chloro-6-(4-chloro-3-fluoro-2-(hydroxymethyl)phenyl)picolinate] | 0 to 29

same assay, conditions: post-emergence, 336 h, SORVU: grain sorghum (Sorghum vulgare), 140 g ai/ha, 14 days after application, read-out: Visual Growth Reduction (%) 14 Days After Application SORVU

Row | SMILES | pest or weed control at 140 g/ha [%]
12 | COC(=O)c1nc(-c2ccc(Cl)c(F)c2CO)cc(N)c1Cl [Compound 29, Methyl 4-amino-3-chloro-6-(4-chloro-3-fluoro-2-(hydroxymethyl)phenyl)picolinate] | 0 to 29

same assay, conditions: post-emergence, 336 h, TRZSS (crop), 70 g ai/ha, 14 days after application, read-out: Visual Growth Reduction (%) 14 Days After Application TRZSS

Row | SMILES | pest or weed control at 70 g/ha [%]
13 | COC(=O)c1nc(-c2ccc(Cl)c(F)c2CO)cc(N)c1Cl [Compound 29, Methyl 4-amino-3-chloro-6-(4-chloro-3-fluoro-2-(hydroxymethyl)phenyl)picolinate] | 0 to 29

same assay, conditions: post-emergence, 336 h, TRZSS (crop), 140 g ai/ha, 14 days after application, read-out: Visual Growth Reduction (%) 14 Days After Application TRZSS

Row | SMILES | pest or weed control at 140 g/ha [%]
14 | COC(=O)c1nc(-c2ccc(Cl)c(F)c2CO)cc(N)c1Cl [Compound 29, Methyl 4-amino-3-chloro-6-(4-chloro-3-fluoro-2-(hydroxymethyl)phenyl)picolinate] | 0 to 29

same assay, conditions: post-emergence, 336 h, ZEAMX: maize, corn (Zea mays), 70 g ai/ha, 14 days after application, read-out: Visual Growth Reduction (%) 14 Days After Application ZEAMX

Row | SMILES | pest or weed control at 70 g/ha [%]
15 | COC(=O)c1nc(-c2ccc(Cl)c(F)c2CO)cc(N)c1Cl [Compound 29, Methyl 4-amino-3-chloro-6-(4-chloro-3-fluoro-2-(hydroxymethyl)phenyl)picolinate] | 0 to 29

same assay, conditions: post-emergence, 336 h, ZEAMX: maize, corn (Zea mays), 140 g ai/ha, 14 days after application, read-out: Visual Growth Reduction (%) 14 Days After Application ZEAMX

Row | SMILES | pest or weed control at 140 g/ha [%]
16 | COC(=O)c1nc(-c2ccc(Cl)c(F)c2CO)cc(N)c1Cl [Compound 29, Methyl 4-amino-3-chloro-6-(4-chloro-3-fluoro-2-(hydroxymethyl)phenyl)picolinate] | 0 to 29

tested on: Key Broadleaf Weed and Crop Species; assay: Post-Emergent Test II (Table 5); format: in vivo; conditions: Abutilon theophrasti, post-emergence, 336 h, ABUTH: velvetleaf (Abutilon theophrasti), application rate 70 (kg ai/ha; footnote: g ai/ha), read-out: Visual Growth Reduction (%) 14 Days After Application ABUTH
Summary of the method: as §1

Row | SMILES | pest or weed control at 70 g/ha [%]
17 | COC(=O)c1nc(-c2ccc(Cl)c(F)c2CO)cc(N)c1Cl [Compound 29, Methyl 4-amino-3-chloro-6-(4-chloro-3-fluoro-2-(hydroxymethyl)phenyl)picolinate] | 0 to 29

same assay, conditions: Abutilon theophrasti, post-emergence, 336 h, ABUTH: velvetleaf (Abutilon theophrasti), application rate 140 (kg ai/ha; footnote: g ai/ha), read-out: Visual Growth Reduction (%) 14 Days After Application ABUTH

Row | SMILES | pest or weed control at 140 g/ha [%]
18 | COC(=O)c1nc(-c2ccc(Cl)c(F)c2CO)cc(N)c1Cl [Compound 29, Methyl 4-amino-3-chloro-6-(4-chloro-3-fluoro-2-(hydroxymethyl)phenyl)picolinate] | 0 to 29

same assay, conditions: Amaranthus retroflexus, post-emergence, 336 h, AMARE: redroot pigweed (Amaranthus retroflexus), application rate 70 (kg ai/ha; footnote: g ai/ha), read-out: Visual Growth Reduction (%) 14 Days After Application AMARE

Row | SMILES | pest or weed control at 70 g/ha [%]
19 | COC(=O)c1nc(-c2ccc(Cl)c(F)c2CO)cc(N)c1Cl [Compound 29, Methyl 4-amino-3-chloro-6-(4-chloro-3-fluoro-2-(hydroxymethyl)phenyl)picolinate] | 0 to 29

same assay, conditions: Amaranthus retroflexus, post-emergence, 336 h, AMARE: redroot pigweed (Amaranthus retroflexus), application rate 140 (kg ai/ha; footnote: g ai/ha), read-out: Visual Growth Reduction (%) 14 Days After Application AMARE

Row | SMILES | pest or weed control at 140 g/ha [%]
20 | COC(=O)c1nc(-c2ccc(Cl)c(F)c2CO)cc(N)c1Cl [Compound 29, Methyl 4-amino-3-chloro-6-(4-chloro-3-fluoro-2-(hydroxymethyl)phenyl)picolinate] | 0 to 29

same assay, conditions: Brassica napus, post-emergence, 336 h, BRSSS: oilseed rape, canola (Brassica napus), application rate 70 (kg ai/ha; footnote: g ai/ha), read-out: Visual Growth Reduction (%) 14 Days After Application BRSSS

Row | SMILES | pest or weed control at 70 g/ha [%]
21 | COC(=O)c1nc(-c2ccc(Cl)c(F)c2CO)cc(N)c1Cl [Compound 29, Methyl 4-amino-3-chloro-6-(4-chloro-3-fluoro-2-(hydroxymethyl)phenyl)picolinate] | 0 to 29

same assay, conditions: Brassica napus, post-emergence, 336 h, BRSSS: oilseed rape, canola (Brassica napus), application rate 140 (kg ai/ha; footnote: g ai/ha), read-out: Visual Growth Reduction (%) 14 Days After Application BRSSS

Row | SMILES | pest or weed control at 140 g/ha [%]
22 | COC(=O)c1nc(-c2ccc(Cl)c(F)c2CO)cc(N)c1Cl [Compound 29, Methyl 4-amino-3-chloro-6-(4-chloro-3-fluoro-2-(hydroxymethyl)phenyl)picolinate] | 0 to 29

same assay, conditions: Chenopodium album, post-emergence, 336 h, CHEAL: lambsquarters (Chenopodium album), application rate 70 (kg ai/ha; footnote: g ai/ha), read-out: Visual Growth Reduction (%) 14 Days After Application CHEAL

Row | SMILES | pest or weed control at 70 g/ha [%]
23 | COC(=O)c1nc(-c2ccc(Cl)c(F)c2CO)cc(N)c1Cl [Compound 29, Methyl 4-amino-3-chloro-6-(4-chloro-3-fluoro-2-(hydroxymethyl)phenyl)picolinate] | 85 to 94

same assay, conditions: Chenopodium album, post-emergence, 336 h, CHEAL: lambsquarters (Chenopodium album), application rate 140 (kg ai/ha; footnote: g ai/ha), read-out: Visual Growth Reduction (%) 14 Days After Application CHEAL

Row | SMILES | pest or weed control at 140 g/ha [%]
24 | COC(=O)c1nc(-c2ccc(Cl)c(F)c2CO)cc(N)c1Cl [Compound 29, Methyl 4-amino-3-chloro-6-(4-chloro-3-fluoro-2-(hydroxymethyl)phenyl)picolinate] | 85 to 94

same assay, conditions: Euphorbia heterophylla, post-emergence, 336 h, EPHHL: wild poinsettia (Euphorbia heterophylla), application rate 70 (kg ai/ha; footnote: g ai/ha), read-out: Visual Growth Reduction (%) 14 Days After Application EPHHL

Row | SMILES | pest or weed control at 70 g/ha [%]
25 | COC(=O)c1nc(-c2ccc(Cl)c(F)c2CO)cc(N)c1Cl [Compound 29, Methyl 4-amino-3-chloro-6-(4-chloro-3-fluoro-2-(hydroxymethyl)phenyl)picolinate] | 0 to 29

same assay, conditions: Euphorbia heterophylla, post-emergence, 336 h, EPHHL: wild poinsettia (Euphorbia heterophylla), application rate 140 (kg ai/ha; footnote: g ai/ha), read-out: Visual Growth Reduction (%) 14 Days After Application EPHHL

Row | SMILES | pest or weed control at 140 g/ha [%]
26 | COC(=O)c1nc(-c2ccc(Cl)c(F)c2CO)cc(N)c1Cl [Compound 29, Methyl 4-amino-3-chloro-6-(4-chloro-3-fluoro-2-(hydroxymethyl)phenyl)picolinate] | 0 to 29

same assay, conditions: Helianthus annuus, post-emergence, 336 h, HELAN: sunflower (Helianthus annuus), application rate 70 (kg ai/ha; footnote: g ai/ha), read-out: Visual Growth Reduction (%) 14 Days After Application HELAN

Row | SMILES | pest or weed control at 70 g/ha [%]
27 | COC(=O)c1nc(-c2ccc(Cl)c(F)c2CO)cc(N)c1Cl [Compound 29, Methyl 4-amino-3-chloro-6-(4-chloro-3-fluoro-2-(hydroxymethyl)phenyl)picolinate] | 0 to 29

same assay, conditions: Helianthus annuus, post-emergence, 336 h, HELAN: sunflower (Helianthus annuus), application rate 140 (kg ai/ha; footnote: g ai/ha), read-out: Visual Growth Reduction (%) 14 Days After Application HELAN

Row | SMILES | pest or weed control at 140 g/ha [%]
28 | COC(=O)c1nc(-c2ccc(Cl)c(F)c2CO)cc(N)c1Cl [Compound 29, Methyl 4-amino-3-chloro-6-(4-chloro-3-fluoro-2-(hydroxymethyl)phenyl)picolinate] | 0 to 29

same assay, conditions: Viola tricolor, post-emergence, 336 h, VIOTR: wild pansy (Viola tricolor), application rate 70 (kg ai/ha; footnote: g ai/ha), read-out: Visual Growth Reduction (%) 14 Days After Application VIOTR

Row | SMILES | pest or weed control at 70 g/ha [%]
29 | COC(=O)c1nc(-c2ccc(Cl)c(F)c2CO)cc(N)c1Cl [Compound 29, Methyl 4-amino-3-chloro-6-(4-chloro-3-fluoro-2-(hydroxymethyl)phenyl)picolinate] | 0 to 29

same assay, conditions: Viola tricolor, post-emergence, 336 h, VIOTR: wild pansy (Viola tricolor), application rate 140 (kg ai/ha; footnote: g ai/ha), read-out: Visual Growth Reduction (%) 14 Days After Application VIOTR

Row | SMILES | pest or weed control at 140 g/ha [%]
30 | COC(=O)c1nc(-c2ccc(Cl)c(F)c2CO)cc(N)c1Cl [Compound 29, Methyl 4-amino-3-chloro-6-(4-chloro-3-fluoro-2-(hydroxymethyl)phenyl)picolinate] | 0 to 29
